Results on 14 compounds are retold here after patent US20240116985A1, “STAPLED PEPTIDES AND METHODS THEREOF” (priority 2020, published 2024).

This assay deals with T1, full-length beta-Catenin (Uniprot ID P35222) (Homo sapiens, UniProt P35222).
T1 construct: 10 nM full-length beta-Catenin (Uniprot ID P35222)
T1 sequence (P35222 1-781): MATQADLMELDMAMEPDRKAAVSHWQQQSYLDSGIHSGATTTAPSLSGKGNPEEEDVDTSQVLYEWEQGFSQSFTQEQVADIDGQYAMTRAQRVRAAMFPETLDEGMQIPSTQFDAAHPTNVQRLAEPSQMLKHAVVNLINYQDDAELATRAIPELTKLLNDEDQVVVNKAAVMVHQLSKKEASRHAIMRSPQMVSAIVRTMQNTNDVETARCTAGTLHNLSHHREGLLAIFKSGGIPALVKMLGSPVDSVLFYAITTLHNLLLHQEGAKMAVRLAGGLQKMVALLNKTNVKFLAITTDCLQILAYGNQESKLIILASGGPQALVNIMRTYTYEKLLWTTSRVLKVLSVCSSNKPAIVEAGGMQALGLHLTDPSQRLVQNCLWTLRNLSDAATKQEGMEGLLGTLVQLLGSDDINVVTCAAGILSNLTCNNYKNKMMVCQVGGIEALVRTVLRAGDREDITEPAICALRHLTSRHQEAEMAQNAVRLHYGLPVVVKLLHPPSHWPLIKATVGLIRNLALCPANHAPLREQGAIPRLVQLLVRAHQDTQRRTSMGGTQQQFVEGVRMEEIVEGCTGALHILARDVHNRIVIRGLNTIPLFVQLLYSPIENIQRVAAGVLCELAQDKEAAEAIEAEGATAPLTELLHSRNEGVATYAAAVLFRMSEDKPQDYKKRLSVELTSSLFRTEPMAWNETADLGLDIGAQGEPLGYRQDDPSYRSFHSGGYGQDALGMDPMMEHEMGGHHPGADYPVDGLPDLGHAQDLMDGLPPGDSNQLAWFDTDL
As to the kind of experiment: Fluorescence polarization IC50 (beta-catenin / 5FAM-TCF4 10-53 competition). Type of assay: binding. The conditions noted are these: fluorescence polarization; read-out: beta-Catenin FP IC50. A general note: Polarisation of emitted light reports the rotation of a fluorescent probe.

Usually IC50 stands for the midpoint of a concentration-inhibition curve. Take `CC(=O)N1CCC[C@]12CC=CCCCC1(CCCC=CCCCOC(=O)N3CC[C@@](C(=O)N[C@@H](Cc4ccsc4)C(=O)N[C@@H](Cc4csc5ccccc45)C(=O)N[C@@H](CCC(N)=O)C(N)=O)(C3)NC(=O)[C@H](CC(C)C)NC(=O)[C@H](Cc3ccccc3)NC(=O)[C@H](C)NC(=O)[C@H](C)NC(=O)[C@H](Cc3ccc(O)cc3)NC(=O)[C@H](CC(=O)O)NC1=O)NC(=O)[C@H](CC(C)(C)C)NC(=O)[C@H](CC(=O)O)NC2=O` (stereo partly drawn) [I-1784, Ac-PL3-Asp-Npg-B5-Asp-Tyr-Ala-Ala-Phe-Leu-PyrS2-3Thi-BztA-Gln-NH2]: the IC50 was determined as 528 nM. Under `CC(=O)N1CCC[C@]12CC=CCCCC1(CCCC=CCCCOC(=O)N3CC[C@@](C(=O)N[C@@H](Cc4ccsc4)C(=O)N[C@@H](Cc4csc5ccccc45)C(=O)N[C@@H](CCC(N)=O)C(N)=O)(C3)NC(=O)[C@H](CC(N)=O)NC(=O)[C@H](Cc3ccccc3)NC(=O)[C@H](C)NC(=O)[C@H](C)NC(=O)[C@H](CCc3ccc(O)cc3)NC(=O)[C@H](CC(=O)O)NC1=O)NC(=O)[C@H](CC(C)(C)C)NC(=O)[C@H](CC(=O)O)NC2=O` (stereo partly drawn) [I-1785, Ac-PL3-Asp-Npg-B5-Asp-hTyr-Ala-Ala-Phe-Asn-PyrS2-3Thi-BztA-Gln-NH2] stands 31 nM; under `CC(=O)N1CCC[C@]12CC=CCCCC1(CCCC=CCCCOC(=O)N3CC[C@@](C(=O)N[C@@H](Cc4ccsc4)C(=O)N[C@@H](Cc4csc5ccccc45)C(=O)N[C@@H](CCC(N)=O)C(N)=O)(C3)NC(=O)[C@H](CC(C)C)NC(=O)[C@H](Cc3ccccc3)NC(=O)[C@H](C)NC(=O)[C@H](C)NC(=O)[C@H](CCc3ccc(O)cc3)NC(=O)[C@H](CC(=O)O)NC1=O)NC(=O)[C@H](CC(C)(C)C)NC(=O)[C@H](CC(=O)O)NC2=O` (stereo partly drawn) [I-1787, Ac-PL3-Asp-Npg-B5-Asp-hTyr-Ala-Ala-Phe-Leu-PyrS2-3Thi-BztA-Gln-NH2], 776 nM.

As to `CC(=O)N1CCC[C@]12CC=CCCCC1(CCCC=CCCCOC(=O)N3CC[C@@](C(=O)N[C@@H](Cc4ccsc4)C(=O)N[C@@H](Cc4csc5ccccc45)C(=O)N[C@@H](CCC(N)=O)C(N)=O)(C3)NC(=O)[C@H](CCO)NC(=O)[C@H](Cc3ccccc3)NC(=O)[C@H](C)NC(=O)[C@H](C)NC(=O)[C@H](Cc3c[nH]c4ccccc34)NC(=O)[C@H](CC(=O)O)NC1=O)NC(=O)[C@H](CC(C)(C)C)NC(=O)[C@H](CC(=O)O)NC2=O` (stereo partly drawn) [I-1789, Ac-PL3-Asp-Npg-B5-Asp-Trp-Ala-Ala-Phe-Hse-PyrS2-3Thi-BztA-Gln-NH2], the IC50 is 183 nM. Take `CC(=O)N1CCC[C@]12CC=CCCCC1(CCCC=CCCCOC(=O)N3CC[C@@](C(=O)N[C@@H](Cc4ccsc4)C(=O)N[C@@H](Cc4csc5ccccc45)C(=O)N[C@@H](CCC(N)=O)C(N)=O)(C3)NC(=O)[C@H](CC(C)C)NC(=O)[C@H](Cc3ccccc3)NC(=O)[C@H](C)NC(=O)[C@H](C)NC(=O)[C@H](Cc3c(F)c(F)c(F)c(F)c3F)NC(=O)[C@H](CC(=O)O)NC1=O)NC(=O)[C@H](CC(C)(C)C)NC(=O)[C@H](CC(=O)O)NC2=O` (stereo partly drawn) [I-1792, Ac-PL3-Asp-Npg-B5-Asp-Pff-Ala-Ala-Phe-Leu-PyrS2-3Thi-BztA-Gln-NH2]: the IC50 was 935 nM.

Regarding `CC(=O)N1CCC[C@]12CC=CCCCC1(CCCC=CCCCOC(=O)N3CC[C@@](C(=O)N[C@@H](Cc4ccsc4)C(=O)N[C@@H](Cc4csc5ccccc45)C(=O)N[C@@H](CCC(N)=O)C(N)=O)(C3)NC(=O)[C@H](CC(C)C)NC(=O)[C@H](Cc3ccccc3)NC(=O)[C@H](C)NC(=O)[C@H](C)NC(=O)[C@H](Cc3c[nH]cn3)NC(=O)[C@H](CC(=O)O)NC1=O)NC(=O)[C@H](CC(C)(C)C)NC(=O)[C@H](CC(=O)O)NC2=O` (stereo partly drawn) [I-1795, Ac-PL3-Asp-Npg-B5-Asp-His-Ala-Ala-Phe-Leu-PyrS2-3Thi-BztA-Gln-NH2], the IC50 was determined as 28 nM. `CC(=O)N1CCC[C@]12CC=CCCCC1(CCCC=CCCCOC(=O)N3CC[C@@](C(=O)N[C@@H](Cc4ccsc4)C(=O)N[C@@H](Cc4csc5ccccc45)C(=O)N[C@@H](CCC(=O)N4CCC(N5CCCCC5)CC4)C(N)=O)(C3)NC(=O)[C@H](CC(C)C)NC(=O)[C@H](Cc3ccccc3)NC(=O)[C@H](C)NC(=O)[C@H](C)NC(=O)[C@H](CN(CC(=O)O)CC(F)(F)F)NC(=O)[C@H](CC(=O)O)NC1=O)NC(=O)[C@H](CC(C)(C)C)NC(=O)[C@H](CC(=O)O)NC2=O` (stereo partly drawn) [I-1798, Ac-PL3-Asp-Npg-B5-Asp-TfeGA-Ala-Ala-Phe-Leu-PyrS2-3Thi-BztA-[4Pippip]GlnR-NH2]: the IC50 came out at 12 nM. Regarding `CC(=O)N1CCC[C@]12CCCCCC[C@@](C)(C(=O)N[C@@H](CC(=O)O)C(=O)N[C@@H](CC(=O)O)C(=O)N[C@@H](C)C(=O)N[C@@H](C)C(=O)N[C@@H](Cc1ccccc1)C(=O)N[C@@H](CC(C)C)C(=O)NC(C)(C)C(=O)N[C@@H](Cc1ccsc1)C(=O)N[C@@H](Cc1csc3ccccc13)C(=O)N[C@@H](CCC(N)=O)C(N)=O)NC(=O)[C@H](CC(C)(C)C)NC(=O)[C@H](CC(=O)O)NC2=O` [I-1809, Ac-PL3-Asp-Npg-S5-Asp-Asp-Ala-Ala-Phe-Leu-Aib-3Thi-BztA-Gln-NH2], the IC50 was 1950 nM.

For the compound `CC(=O)N1CCC[C@H]1C(=O)N[C@@H](CC(=O)O)C(=O)N[C@@H](CC(C)(C)C)C(=O)N[C@]1(C)CCCCCCCCOC(=O)N2CC[C@@](C(=O)N[C@@H](Cc3ccsc3)C(=O)N[C@@H](Cc3csc4ccccc34)C(=O)N[C@@H](CCC(N)=O)C(N)=O)(C2)NC(=O)[C@H](CC(C)C)NC(=O)[C@H](Cc2ccccc2)NC(=O)[C@H](C)NC(=O)[C@H](C)NC(=O)[C@H](CC(=O)O)NC(=O)[C@H](CC(=O)O)NC1=O` [I-1810, Ac-Pro-Asp-Npg-R5-Asp-Asp-Ala-Ala-Phe-Leu-PyrS2-3Thi-BztA-Gln-NH2], the IC50 came out at 416 nM. Under `CC(=O)N1CCC[C@]12CC=CCCCC1(CCCC=CCCCOC(=O)N3CC[C@@](C(=O)N[C@@H](Cc4ccccc4)C(=O)N[C@@H](Cc4c[nH]c5ccccc45)C(=O)N[C@@H](CCC(N)=O)C(N)=O)(C3)NC(=O)[C@H](CC(C)C)NC(=O)[C@H](Cc3ccccc3)NC(=O)[C@H](C)NC(=O)[C@H](C)NC(=O)[C@H](CC(=O)O)NC(=O)[C@H](CC(=O)O)NC1=O)NC(=O)[C@H](CC(C)C)NC(=O)[C@H](CC(=O)O)NC2=O` (stereo partly drawn) [I-1811, Ac-PL3-Asp-Leu-B5-Asp-Asp-Ala-Ala-Phe-Leu-PyrS2-Phe-Trp-Gln-NH2] stands 156 nM; under `CC(=O)N1CCC[C@]12CC=CCCCC1(CCCC=CCCOC(=O)N3CC[C@@](C(=O)N[C@@H](Cc4ccsc4)C(=O)N[C@@H](Cc4csc5ccccc45)C(=O)N[C@@H](CCC(N)=O)C(N)=O)(C3)NC(=O)[C@H](CC(N)=O)NC(=O)[C@H](Cc3ccccc3)NC(=O)[C@H](C)NC(=O)[C@H](C)NC(=O)[C@H](CC(=O)O)NC(=O)[C@H](CC(=O)O)NC1=O)NC(=O)[C@H](CC(C)(C)C)NC(=O)[C@H](CC(=O)O)NC2=O` (stereo partly drawn) [I-1812, Ac-PL3-Asp-Npg-B5-Asp-Asp-Ala-Ala-Phe-Asn-PyrS1-3Thi-BztA-Gln-NH2], 181 nM. On to `CC(=O)N1CCC[C@]12CC=CCCCC1(CCCC=CCCOC(=O)N3CC[C@@](C(=O)N[C@@H](Cc4ccsc4)C(=O)N[C@@H](Cc4csc5ccccc45)C(=O)N[C@@H](CCC(N)=O)C(N)=O)(C3)NC(=O)[C@H](CC(C)C)NC(=O)[C@H](Cc3ccccc3)NC(=O)[C@H](C)NC(=O)[C@H](C)NC(=O)[C@H](CC(=O)O)NC(=O)[C@H](CC(=O)O)NC1=O)NC(=O)[C@H](CC(C)(C)C)NC(=O)[C@H](CC(=O)O)NC2=O` (stereo partly drawn) [I-1814, Ac-PL3-Asp-Npg-B5-Asp-Asp-Ala-Ala-Phe-Leu-PyrS1-3Thi-BztA-Gln-NH2], for which the IC50 came out at 189 nM. Under `CC(=O)N1CCC[C@]12CC=CCCCC1(CCCC=CCOC(=O)N3CC[C@@](C(=O)N[C@@H](Cc4ccsc4)C(=O)N[C@@H](Cc4csc5ccccc45)C(=O)N[C@@H](CCC(N)=O)C(N)=O)(C3)NC(=O)[C@H](CC(N)=O)NC(=O)[C@H](Cc3ccccc3)NC(=O)[C@H](C)NC(=O)[C@H](C)NC(=O)[C@H](CC(=O)O)NC(=O)[C@H](CC(=O)O)NC1=O)NC(=O)[C@H](CC(C)(C)C)NC(=O)[C@H](CC(=O)O)NC2=O` (stereo partly drawn) [I-1816, Ac-PL3-Asp-Npg-B5-Asp-Asp-Ala-Ala-Phe-Asn-PyrS-3Thi-BztA-Gln-NH2] stands 235 nM; under `CC(=O)N1CCC[C@]12CC=CCCCC1(CCCC=CCOC(=O)N3CC[C@@](C(=O)N[C@@H](Cc4ccsc4)C(=O)N[C@@H](Cc4csc5ccccc45)C(=O)N[C@@H](CCC(N)=O)C(N)=O)(C3)NC(=O)[C@H](CC(N)=O)NC(=O)[C@H](Cc3ccccc3)NC(=O)[C@H](C)NC(=O)[C@H](C)NC(=O)[C@H](CC(=O)O)NC(=O)[C@H](CC(=O)O)NC1=O)NC(=O)[C@H](CC(C)(C)C)NC(=O)[C@H](CC(=O)O)NC2=O` (stereo partly drawn) [I-1817, Ac-PL3-Asp-Npg-B5-Asp-Asp-Ala-Ala-Phe-Asn-PyrS-3Thi-BztA-Gln-NH2], 182 nM.
